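Results reflect a 48-hour exposure of cells in 96-well plates to compound at five concentrations. Here, GI50 denotes the concentration required for 50% inhibition of growth.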 The source made the active and inactive calls. Rule as the data show it: active = GI50 up to about 1.1 µM and inactive = higher.
How the values were obtained:
Test in all cases: DTP human tumour cell line panel, 48 h
[1] = test system: IGROV-1
[2] = test system: SNB-75
[3] = test system: UACC-62
[4] = test system: HT-29
[5] = test system: K562
[6] = test system: T47D
[7] = test system: SF-539
[8] = test system: HCC 2998
[9] = test system: MOLT-4
[10] = test system: M14
[11] = test system: 786-0
[12] = test system: SNB-19
[13] = test system: HOP-92
[14] = test system: NCI-H460
[15] = test system: MCF7
[16] = test system: CAKI-1
[17] = test system: SF-268
[18] = test system: UO-31
[19] = test system: OVCAR-3
[20] = test system: OVCAR-5

Measured: GI50

O=c1[nH]c2cc(C(F)(F)F)ccc2nc1Cc1ccccc1
inactive: [1] 46.7 µM | [2] 41.6 µM | [3] > 100 µM | [4] > 100 µM | [5] 62.2 µM | [6] 38.5 µM | [7] 63.2 µM | [8] > 100 µM | [9] > 100 µM | [10] > 100 µM | [11] 36.6 µM | [12] 66.2 µM | [13] 18.5 µM | [14] > 100 µM | [15] > 100 µM | [16] 60.4 µM | [17] 44.2 µM | [18] 78.3 µM

CCCCC/C(C=O)=C\c1ccccc1
inactive: [1] > 100 µM | [2] > 100 µM | [3] > 100 µM | [4] > 100 µM | [5] 20.3 µM | [6] > 100 µM | [7] > 100 µM | [8] > 100 µM | [9] 65.8 µM | [10] > 100 µM | [11] > 100 µM | [12] > 100 µM | [13] > 100 µM | [14] > 100 µM | [15] > 100 µM | [16] > 100 µM | [17] > 100 µM | [18] > 100 µM

COc1ccc2c(c1)C1Oc3ccccc3CC1(O)CO2 (stereo not drawn)
inactive: [1] > 100 µM | [2] > 100 µM | [3] > 100 µM | [4] > 100 µM | [5] > 100 µM | [6] > 100 µM | [7] > 100 µM | [8] > 100 µM | [9] > 100 µM | [10] > 100 µM | [11] > 100 µM | [13] > 100 µM | [19] > 100 µM | [15] > 100 µM | [16] > 100 µM | [20] > 100 µM | [17] > 100 µM | [18] > 100 µM

CC(=O)OC1COC(n2nc(N)nc2C)C(OC(C)=O)C1OC(C)=O (stereo not drawn)
inactive: [1] > 100 µM | [2] > 100 µM | [3] > 100 µM | [4] > 100 µM | [5] > 100 µM | [6] > 100 µM | [8] > 100 µM | [9] > 100 µM | [10] > 100 µM | [11] > 100 µM | [12] > 100 µM | [13] > 100 µM | [14] > 100 µM | [19] > 100 µM | [15] > 100 µM | [16] > 100 µM | [20] > 100 µM | [17] > 100 µM | [18] > 100 µM
